The text below walks through data of patent publication US20240122897A1, “DMT SALTS AND THEIR USE TO TREAT BRAIN INJURY” (ALGERNON PHARMACEUTICALS INC., priority 2021, published 2024).

Like-named read-outs stand apart in the source and are kept apart here.

The conditions of data set [1]: in vivo, cited from earlier work.
For data set [2], the system named is cerebral ischemia-reperfusion injury. The following applies: rat; cited from earlier work.
For data set [3], the system named is primary rat cortical neurons. Description: Neurite outgrowth of primary rat cortical neurons (MAP-2 immunocytochemistry).
Data set [4] has as its target T1, sigma-1 receptor (Homo sapiens, UniProt Q99720).
Protocol: (§1) IC50 values were determined by a non-linear, least squares regression analysis using MathIQ™ (ID Business Solutions Ltd., UK). […] The Hill coefficient (nH), defining the slope of the competitive binding curve, was calculated using MathIQ™.
(§2) Biochemical assay results are presented as the percent inhibition of specific binding or activity. All other results are expressed in terms of that assay's quantitation method. Primary screening in duplicate with semi-quantitative data (e.g., estimated IC50, Ki and nH) are shown.
For data set [5], the target named is T2, Serotonin (5-Hydroxytryptamine) 5-HT2A (Homo sapiens, UniProt P28223).
T2 construct: purchased Eurofins Panlabs, Inc. 271650
T2 sequence (P28223 whole entry): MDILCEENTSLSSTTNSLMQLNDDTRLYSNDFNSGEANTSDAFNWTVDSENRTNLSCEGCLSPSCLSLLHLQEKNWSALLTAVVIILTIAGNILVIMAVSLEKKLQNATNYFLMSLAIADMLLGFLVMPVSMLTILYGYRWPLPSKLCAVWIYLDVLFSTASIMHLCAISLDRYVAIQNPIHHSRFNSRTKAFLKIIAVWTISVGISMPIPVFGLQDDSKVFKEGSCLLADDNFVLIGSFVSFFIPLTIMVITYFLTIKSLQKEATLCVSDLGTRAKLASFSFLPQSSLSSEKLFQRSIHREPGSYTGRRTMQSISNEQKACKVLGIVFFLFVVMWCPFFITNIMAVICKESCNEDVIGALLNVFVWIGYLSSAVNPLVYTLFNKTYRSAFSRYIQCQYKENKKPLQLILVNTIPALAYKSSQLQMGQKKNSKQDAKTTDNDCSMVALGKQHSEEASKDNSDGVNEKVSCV
Kind of data set: biochemical. The format is binding.

The target in data set [6] is T1, sigma-1 receptor. Description: biochemical. The settings on record: for IC50: IC50, estimated, duplicate; for Ki: Cheng and Prusoff.
Protocol: as §1, §2

T1 sequence (Q99720 whole entry): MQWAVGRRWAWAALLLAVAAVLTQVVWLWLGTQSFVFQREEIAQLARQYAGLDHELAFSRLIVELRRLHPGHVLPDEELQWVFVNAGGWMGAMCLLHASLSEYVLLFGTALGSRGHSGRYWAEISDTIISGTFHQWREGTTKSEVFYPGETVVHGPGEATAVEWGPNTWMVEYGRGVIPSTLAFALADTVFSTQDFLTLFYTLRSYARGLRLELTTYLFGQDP

With `CN(C)CCc1c[nH]c2ccccc12` [DMT, N, N-Dimethyltryptamine], the oral availability result in data set [1] (po) was “not orally available”. In addition, the half-life in data set [1] was 15 min. In data set [2], the functional recovery result is “improved” and the “infarct (dead cells) volume” value was “reduced”. Further, the “neurite outgrowth of rat cortical neurons” value in data set [3] (DMT stimulation, overall) is given as “showed beneficial effects”.

As to `CN(C)CCc1c[nH]c2ccccc12` [N,N-Dimethyltryptamine nicotinate], the “% Inh.” value at sigma-1 receptor [4] (10 nM, 0.01 µM) is −6%; at sigma-1 receptor [4] (0.03 μM) it was −9%; on sigma-1 receptor [4] (0.1 μM), −3%; on sigma-1 receptor [4] (0.5 μM), −13%; on sigma-1 receptor [4] (1 μM) it was 5%; at sigma-1 receptor [4] (5 μM), 23%. Moreover, the “% Inh.” value at sigma-1 receptor [4] (10 μM) is 44%; at sigma-1 receptor [4] (16 μM), 44%; in data set [5] (0.01 µM), 14%; in data set [5] (0.03 μM), 17%; in data set [5] (0.3 µM), 31%; in data set [5] (1 μM), 59%. For the same compound, the “binding affinity to sigma-1-receptors” value on sigma-1 receptor [4] (at concentrations above 0.5 μM) is given as “good binding affinity”. In addition, the “nH (Hill coefficient)” value in data set [5] came out at 0.71. Also, inhibition in data set [5] was half-maximal at 600 nM (IC50). The affinity in data set [5] corresponds to a Ki of 170 nM. For the same compound, the inhibition at 0.003 µM in data set [5] (read-out: % Inh.) turned out to be 7%. Besides, the inhibition at 0.1 µM in data set [5] (read-out: % Inh.) came out at 19%. The inhibition at 3 µM in data set [5] (read-out: % Inh.) was 79%. Also, in data set [5] (read-out: % Inh.), the inhibition at 10 µM was 92%.

Turning to `CNC1(c2ccccc2Cl)CCCCC1=O` (stereo not drawn) [Ketamine], in data set [3] (10 nM, 1-72 h stimulation), the neurite outgrowth result was “did not show any significant beneficial effects”.

Take `CN(C)CCc1c[nH]c2ccccc12` [N,N-Dimethyltryptamine pamoate]: the “nH (Hill coefficient)” value on sigma-1 receptor [4] is given as 1.35; in data set [5], 0.92. The “% Inh.” value at sigma-1 receptor [4] (10 nM, 0.01 µM) is on record as −14%; at sigma-1 receptor [4] (0.03 μM) it was −10%; at sigma-1 receptor [4] (0.1 μM), 0%; at sigma-1 receptor [4] (0.5 μM), 1%; at sigma-1 receptor [4] (1 μM), 6%; on sigma-1 receptor [4] (5 μM), 45%. Moreover, the “% Inh.” value at sigma-1 receptor [4] (16 μM) came to 77%; in data set [5] (0.003 µM) it was 2%; in data set [5] (0.01 µM), 10%; in data set [5] (0.03 μM), 20%; in data set [5] (1 μM) it was 86%. Also, the “affinity to sigma-1 receptors compared to DMT fumarate” value on sigma-1 receptor [4] (at concentrations above 1 μM) is “better affinity”. Moreover, the IC50 at sigma-1 receptor [6] is 6310 nM; in data set [5], 190 nM. Moreover, the results for the Ki (at sigma-1 receptor [6]; in data set [5]) were 3250 nM and 54 nM, respectively. In addition, the inhibition at 10 µM on sigma-1 receptor [6] (read-out: % Inh., 10 μM) was 64%; in data set [5] (read-out: % Inh.), 100%. For the same compound, the “5HT2A binding compared to DMT fumarate” value in data set [5] is reported as “improved 5HT2A binding”. In addition, in data set [5] (read-out: % Inh.), the inhibition at 0.1 µM came to 34%. Moreover, the inhibition at 0.3 µM in data set [5] (read-out: % Inh.) was 56%. In addition, the inhibition at 3 µM in data set [5] (read-out: % Inh.) worked out at 95%.

Regarding `CN(C)CCc1c[nH]c2ccccc12.O=C(O)/C=C/C(=O)O` [N,N-Dimethyltryptamine fumarate, reference compound], the “nH (Hill coefficient)” value is listed as 0.76 at sigma-1 receptor [4] and 0.75 in data set [5]. Moreover, the “% Inh.” value on sigma-1 receptor [4] (10 nM) came out at 6%; at sigma-1 receptor [4] (0.03 μM), 15%; at sigma-1 receptor [4] (0.1 μM) it was 7%; on sigma-1 receptor [4] (0.5 μM), 5%; on sigma-1 receptor [4] (1 μM), 14%; on sigma-1 receptor [4] (10 μM), 50%. The “% Inh.” value was determined as 8% in data set [5] (0.003 µM); 26% in data set [5] (0.1 μM); 48% in data set [5] (0.3 µM); 93% in data set [5] (3 µM); 98% in data set [5] (10 μM). Besides, the IC50 on sigma-1 receptor [6] was 10200 nM; in data set [5], 250 nM. Besides, the Ki was determined as 5280 nM on sigma-1 receptor [6] and 71 nM in data set [5]. On sigma-1 receptor [6] (read-out: % Inh., 5 μM), the inhibition at 5 µM amounted to 36%. On sigma-1 receptor [6] (read-out: % Inh., 16 μM), the inhibition at 16 µM is 59%. Also, in data set [5] (read-out: % Inh.), the inhibition at 0.01 µM worked out at 15%. Further, the inhibition at 0.03 µM in data set [5] (read-out: % Inh.) worked out at 24%. Besides, the inhibition at 1 µM in data set [5] (read-out: % Inh.) is 76%.
